Results from patent publication EP2135604A1, “INFUSION PREPARATION FOR CANCER PATIENT” (Matsui, Hirofumi, priority 2007, dated 2008).

How the values were obtained:
[1] = test system: tumor cell lines of rat and human stomach cancer; assay: Protein levels at decreased glucose levels in the culture medium; format: cell-based; settings: human stomach cancer tumor cell line; decreasing glucose levels in the culture medium
[2] = test system: normal stomach mucous cell line of rat; assay: as above; format: cell-based
[3] = test system: tumor cell lines of rat and human stomach cancer; assay: as above; format: cell-based; settings: rat stomach cancer tumor cell line; decreasing glucose levels in the culture medium
[4] = test system: rat stomach cancer cell line (RGK-37); assay: BrdU uptake (ELISA) at different glucose concentrations in the growth medium; format: cell-based; settings: medium with 0, 0.3 or 1.3 g/L of glucose, 1%FBS, 1% L-glutamine, 24 hours, relative to 3 g/L glucose (= 1)
Description: (§1) A rat stomach mucous membrane cell line (RGM) and a rat stomach cancer cell line (RGK-37) were cultured in Gibco#11330-032 DMEM/F12 medium and L-glutamine-free Sigma#D6421 DMEM/F12 medium, respectively. Each culture was supplemented with 10% FBS and was cultured during the logarithmic growth phase. The growth medium was then replaced with a growth medium containing 0, 0.3 or 1.3 g/L of glucose and supplemented with 1%FBS and 1% L-glutamine. After 24 hours of culturing, bromodeoxyuridine (BrdU) was added to each culture. 2 hours after the addition of BrdU, the BrdU uptake was measured by ELISA. The BrdU uptake for each culture is shown in Fig. 1 relative to the uptake obtained at a glucose concentration of 3 g/L (= 1).

[5] = test system: rat stomach mucous membrane cell line (RGM); assay: as above; format: cell-based; settings: medium with 0, 0.3 or 1.3 g/L of glucose, 1%FBS, 1% L-glutamine, 24 hours, relative to 3 g/L glucose (= 1)
Description: as §1

[6] = test system: rat stomach mucous membrane cells; assay: Chemical carcinogenesis with L-glutamine added to the growth medium; format: cell-based; settings: addition of L-glutamine to the growth medium
[7] = test system: rat stomach cancer cell line (RGK-37); assay: Culture in glucose-free, 3% glutamine medium, observation under a microscope; format: cell-based; settings: RGK-37 tumor cells, absence of glucose, 120 hours
Description: (§2) A rat stomach mucous membrane cell line (RGM) and a rat stomach cancer cell line (RGK-37) were cultured in Gibco#11330-032 DMEM/F12 medium and Sigma#D6421 DMEM/F12 medium, respectively. Each culture was cultured in the absence of glucose and in the presence of 3% glutamine for 120 hours. Subsequently, the cells were observed under a microscope.

[8] = test system: rat stomach mucous membrane cell line (RGM); assay: as above; format: cell-based; settings: RGM non-tumor cells, absence of glucose, 120 hours
Description: as §2

[9] = test system: rats infected with Helicobacter pylori; settings: reported by Patent Document 4; cited from earlier work

Row | SMILES | protein levels [1] | protein levels [2] | protein levels [3] | BrdU uptake [4] | BrdU uptake [5] | chemical carcinogenesis [6] | cell survival / apoptosis (microscope) [7] | cell survival / apoptosis (microscope) ([7]; listed as glutamine) | cell survival (microscope) [8] | cell survival (microscope) ([8]; listed as glutamine) | onset of legions resembling stomach cancer [9]
1 | OC[C@H]1OC(O)[C@H](O)[C@@H](O)[C@@H]1O (some centres unmarked) [glucose] | decreased protein levels | no changes | decreased protein levels | decreased relatively with decreasing concentrations of glucose | relatively constant |  |  |  |  |  | 
2 | NC(=O)CC[C@H](N)C(=O)O [L-glutamine] |  |  |  |  |  | suppresses chemical carcinogenesis | apoptosis is induced | apoptosis was induced | can survive | survived | ability to suppress the onset of legions resembling stomach cancer
